Like-named read-outs stand apart in the source and are kept apart here.
Tests used:
[1] = system: Moorslede soil; assay: In soil nitrification inhibition assay, Moorslede soil; details: for inhibition at 50 µM / inhibition at 5 µM / inhibition at 20 µM: soil
Procedure: Top layer (0 to 10 cm) soil samples were collected from different fields in Belgium (Merelbeke and Moorslede). Vegetation on the field trial was removed and samples were taken from different plots. All soil samples were mixed and sieved (mesh size 2.8 mm) to filter large debris and homogenize soil. The soil was stored at 5° C. in plastic containers covered with Saran foil to prevent changes in microbial community composition and to maintain the original soil water content.
Soil water content was determined by drying 20 g soil for 48 h in a 60° C. oven and measuring weight before and after drying. Based on the soil water content (±20%), compound solutions were prepared so that addition of 200 μl compound and 200 μl NH4Cl solution would result in a final compound concentration of 50 μM and a final NH4^+ concentration of 10 mM. Per treatment, 5 small pots were filled with 20 g soil. Next, the soil was treated first with the respective compound solution and then with the NH4Cl solution. Per tray, positive (50 μM DMP) and negative controls (DMSO) were included. Pots were incubated at 21° C. (6 a.m. to 10 p.m. light) for 7 days. Demineralized water was added to the soil every 2 to 3 days to a soil weight of 20 g. In the end, each sample of 20 g soil was dissolved in 100 ml 1M KCl and shaken for 1 hour, followed by filtration through Whatmann® paper. The filtrate was used to measure pH, NH4^+ and NO3− concentrations.
A set of examples was tested in the same conditions (Moorslede soil, 3 days of incubation) at a concentration of 50 μM.
Another set of examples was tested in different concentrations in Moorslede soil as well, and were sampled after 5 days.
The effect of 3H-1,3-thiazole-2-thione was tested in soil in accordance with the test described above in section 3.3.

[2] = system: NH3 or NH2OH oxidation in N. europaea cells; assay: Nitrosomonas europaea ammonia vs. hydroxylamine oxidation assay; assay type: cell-based; details: compounds 50 μM, NO2- after 30 min; for Nitrification from NH2OH (% compared to DMSO): 1 mM NH2OH as N-source; for Nitrification from NH3 (% compared to DMSO): NH4+ 1 mM as N-source
Procedure: Two days old, late-log phase cultures with a NO2− concentration between 10 and 20 mM were washed 3 times in fresh growth medium (without N) and finally 4 times overconcentrated via centrifugation (4000 rpm, 15 min, 4° C.). Transparent, flat bottom 96-well plate (Cat. No. 353072, Falcon® 96 Well Clear Flat Bottom Microplate, Corning®) were filled with 150 μl culture per well using a dispenser (Multidrop™ Combi Reagent Dispenser, Thermo Scientific™). Compounds (final concentration 50 μM) were added in triplicate to the multi-well plate by use of a Tecan robot (Freedom EVO®, Tecan). Thiourea (positive control for inhibition of NH3 oxidation—final concentration 100 μM) and phenylhydrazine hydrochloride (positive control for inhibition of NH2OH oxidation—final concentration 1 mM) were added to the outer two columns. Each plate was made in duplicate to add either 500 μM (NH4)2SO4 (final [NH4+]=1 mM) or 1 mM NH2OH. All plates were separately wrapped in Parafilm. Stacks of 4 plates were put on top of a 96-well plate filled with 100 μl MilliQ per well, covered with aluminum foil and shaken (±150 rpm) at 28° C. To prevent read-out of secondary effects on NO2− production, NO2− was measured only 30 min later. For this, the samples were first 2 times diluted by pipetting 15 μl in 15 μl fresh growth medium in 96-well intermediate plates (Cat. Ref. PCR-96-FS-C, 96-well PCR Microplate, Axygen®) to then mix 15 μl of the diluted samples with 15 μl Griess reagent in the wells of a transparent, flat bottom 384-well plate (Cat. No. X^7001, Low Profile Microplate, Molecular Devices) that was measured spectrophotometrically at 540 nm (EnVision, Perkin Elmer®).
To get insights on the targeted metabolic pathway and to discriminate between compounds that specifically affect NH3 oxidation or that affect another pathway, three representative novel nitrification inhibitors (Examples 1, 5 and 6) were tested in the “ammonia vs hydroxylamine oxidation assay” in which NO2− production from NH3 was compared with NO2− production from NH2OH.

[3] = system: Merelbeke soil; assay: In soil nitrification inhibition assay, Merelbeke soil; details: for inhibition of ammonium consumption in soil, in words: 50 μM, one week of treatment; for inhibition at 50 µM: soil, 168 h, 7 days, read-out: % Nitrification inhibition in soil (7 days of incubation, Merelbeke soil)
Procedure: Top layer (0 to 10 cm) soil samples were collected from different fields in Belgium (Merelbeke and Moorslede). Vegetation on the field trial was removed and samples were taken from different plots. All soil samples were mixed and sieved (mesh size 2.8 mm) to filter large debris and homogenize soil. The soil was stored at 5° C. in plastic containers covered with Saran foil to prevent changes in microbial community composition and to maintain the original soil water content. Soil water content was determined by drying 20 g soil for 48 h in a 60° C. oven and measuring weight before and after drying. Based on the soil water content (±20%), compound solutions were prepared so that addition of 200 μl compound and 200 μl NH4Cl solution would result in a final compound concentration of 50 μM and a final NH4^+ concentration of 10 mM. Per treatment, 5 small pots were filled with 20 g soil. Next, the soil was treated first with the respective compound solution and then with the NH4Cl solution. Per tray, positive (50 μM DMP) and negative controls (DMSO) were included. Pots were incubated at 21° C. (6 a.m. to 10 p.m. light) for 7 days. Demineralized water was added to the soil every 2 to 3 days to a soil weight of 20 g. In the end, each sample of 20 g soil was dissolved in 100 ml 1M KCl and shaken for 1 hour, followed by filtration through Whatmann® paper. The filtrate was used to measure pH, NH4^+ and NO3− concentrations. The nitrification inhibitors were applied in a nitrification inhibition assay using agricultural soil. In practice, ammonium with or without the new nitrification inhibitors was added to soil from a field in Merelbeke (Belgium). The ammonium level was measured at the start of the experiment and at the end of the experiment, after one week of incubation. A nitrification inhibition percentage was calculated by comparing the reduction in ammonium level with the nitrification inhibitor to the reduction in ammonium without the nitrification inhibitor. Ammonium was added to soil with a high nitrification activity and treated with the nitrification inhibitors (final concentration of 50 μM). […] This validates that the new nitrification inhibitors are effectively inhibiting ammonia oxidation by soil communities.

[4] = 72 h, 3 days, read-out: % Nitrification inhibition in soil (3 days of incubation, Moorslede soil) at 50 μM
[5] = 120 h, 5 days, read-out: % Nitrification inhibition in soil (5 days of incubation, Moorslede soil) at indicated concentration
[6] = 120 h, 20 μM, 5 days, read-out: % Nitrification inhibition in soil (5 days of incubation, Moorslede soil) at indicated concentration

SMILES	inhibition at 50 µM [1, 4] [%]	inhibition at 5 µM [1, 5] [%]	inhibition at 20 µM [1, 6] [%]	inhibition at 50 µM [1, 5] [%]	Nitrification from NH2OH (% compared to DMSO) [2] [%]	Nitrification from NH3 (% compared to DMSO) [2] [%]	inhibition of ammonium consumption in soil, in words [3]	inhibition at 50 µM [3] [%]	nitrification inhibition in soil, in words ([1]; 20 μM, 5 days)	inhibition at 20 µM ([1]; 120 h, 20 μM, 5 days, read-out: Average % nitrification inhibition in soil (5 days of incubation, Moorslede soil) at 20 μM) [%]
S=C1NCCO1 [Example 7]	100	8	32	38	–	–	–	–	–	–
CN(Cc1nc2ccccc2s1)CN1CCOC1=S [Example 5, 3-[[1,3-benzothiazol-2-ylmethyl(methyl)amino]methyl]-1,3-oxazolidine-2-thione]	–	–	–	–	77	17	significant inhibition	14	–	–
CN(Cc1c(Cl)nc2sccn12)CN1CCSC1=S [Example 1, 3-[[(6-chloroimidazo[2,1-b][1,3]thiazol-5-yl)methyl-methylamino]methyl]-1,3-thiazolidine-2-thione]	–	–	–	–	81	12	strongly inhibited the ammonium consumption	60	–	–
CSc1nccs1 [Example 25, 2-(methylsulfanyI)-1,3-thiazole]	73	3	14	30	–	–	–	–	–	–
S=c1[nH]ccs1 [Example 24, 3H-1,3-thiazole-2-thione]	40	–	–	–	–	–	–	–	effectively inhibits nitrification in soil	14

From US20230416168A1 (EUROCHEM ANTWERPEN, priority 2020, published 2023)
